From US20260200926A1, “TREM2 MODULATORS” (Muna Therapeutics ApS, priority 2022, published 2026)

Biological target: T1, Human TREM2 (Homo sapiens, UniProt Q9NZC2)
T1 construct: expressed in transfected cells
Assay: Human TREM2 activity: cellular phosphorylation of Syk (AlphaLISA SureFire Ultra p-SYK) in HEK293/DAP12+TREM2 stable cell line
Format: cell-based
Settings: for Emax: HEK293, maximal response relative to reference agonist example 1B (remaining examples), read-out: Emax; for EC50: phospho-Syk AlphaLISA signal, HEK293/DAP12+TREM2 cells, concentration giving 50% of maximal response, read-out: EC50
Outline: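 The read-out was p-Syk (Tyr525/526), measured by AlphaLISA in lysates of a stable HEK293/DAP12+TREM2 clone. Cells (10,000/well, plated the day before) received compound for 30 min at 37 °C. Dosing used 8 points in quadruplicate, top 100 μM with 1:6 dilution, 0.5% final DMSO.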

T1 sequence (Q9NZC2 19-230): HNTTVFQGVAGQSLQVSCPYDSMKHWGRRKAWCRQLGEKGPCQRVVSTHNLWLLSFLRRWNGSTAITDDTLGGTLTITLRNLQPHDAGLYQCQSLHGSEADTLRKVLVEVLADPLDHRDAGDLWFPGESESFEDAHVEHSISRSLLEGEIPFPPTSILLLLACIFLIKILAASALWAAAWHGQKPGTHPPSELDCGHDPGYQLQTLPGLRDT
T1 sequence (O43914 22-113 partner): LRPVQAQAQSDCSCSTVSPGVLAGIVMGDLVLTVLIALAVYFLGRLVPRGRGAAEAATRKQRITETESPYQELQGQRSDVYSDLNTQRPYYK

Row | SMILES | Emax [%] | EC50 [µM]
1 | Cc1cc([C@@H]2CN(c3cc4c(=O)n(C)c(C)nc4c(-c4ccc(F)cc4F)n3)CC(C)(C)O2)ccn1 (single isomer, unassigned) [Example 159A] | 75 to 110 | 0.001 to 0.01
2 | Cc1cc([C@H]2CN(c3cc4c(=O)n(C)c(C)nc4c(-c4ccc(F)cc4F)n3)CC(C)(C)O2)ccn1 (single isomer, unassigned) [Example 159B] | < 75 | 0.1 to 1
3 | Cc1cc([C@@H]2CN(c3cc4c(=O)n(C)c(C)nc4c(-c4cc(F)c(F)cc4F)n3)CC(C)(C)O2)ccn1 (single isomer, unassigned) [Example 160A] | 75 to 110 | 0.001 to 0.01
4 | Cc1cc([C@H]2CN(c3cc4c(=O)n(C)c(C)nc4c(-c4cc(F)c(F)cc4F)n3)CC(C)(C)O2)ccn1 (single isomer, unassigned) [Example 160B] | < 75 | 0.1 to 1
5 | Cc1cc([C@@H]2CN(c3cc4c(=O)n(C)c(C)nc4c(-c4ccc(C(F)(F)F)nc4)n3)CC(C)(C)O2)ccn1 (single isomer, unassigned) [Example 161A] | < 75 | 0.1 to 1
6 | Cc1cc([C@H]2CN(c3cc4c(=O)n(C)c(C)nc4c(-c4ccc(C(F)(F)F)nc4)n3)CC(C)(C)O2)ccn1 (single isomer, unassigned) [Example 161B] | 75 to 110 | 0.001 to 0.01
7 | Cn1cc([C@@H]2CN(c3nc(-c4cc(F)c(F)cc4F)c4nc(C(F)(F)F)n(C)c(=O)c4n3)CC3(CC3)O2)cn1 (single isomer, unassigned) [Example 162A] | 75 to 110 | 0.001 to 0.01
8 | Cn1cc([C@H]2CN(c3nc(-c4cc(F)c(F)cc4F)c4nc(C(F)(F)F)n(C)c(=O)c4n3)CC3(CC3)O2)cn1 (single isomer, unassigned) [Example 162B] | < 75 | 0.01 to 0.1
9 | Cc1cc([C@@H]2CN(c3cc4c(=O)n(C)c(C)nc4c(-c4ccc(C(F)(F)F)cc4F)n3)CC(C)(C)O2)ccn1 (single isomer, unassigned) [Example 163A] | < 75 | 0.1 to 1
10 | Cc1cc([C@H]2CN(c3cc4c(=O)n(C)c(C)nc4c(-c4ccc(C(F)(F)F)cc4F)n3)CC(C)(C)O2)ccn1 (single isomer, unassigned) [Example 163B] | 75 to 110 | 0.001 to 0.01
11 | Cc1cc([C@@H]2CN(c3nc(-c4ccc(C(F)(F)F)nc4)c4nc(C)n(C)c(=O)c4n3)CC(C)(C)O2)ccn1 (single isomer, unassigned) [Example 164A] | 75 to 110 | 0.01 to 0.1
12 | Cc1cc([C@H]2CN(c3nc(-c4ccc(C(F)(F)F)nc4)c4nc(C)n(C)c(=O)c4n3)CC(C)(C)O2)ccn1 (single isomer, unassigned) [Example 164B] | < 75 | 0.001 to 0.01
13 | Cn1cc([C@@H]2CN(c3nc(-c4ccc(F)cc4F)c4nc(C(F)(F)F)n(C)c(=O)c4n3)CC3(CC3)O2)cn1 (single isomer, unassigned) [Example 165A] | 75 to 110 | 0.001 to 0.01
14 | Cn1cc([C@H]2CN(c3nc(-c4ccc(F)cc4F)c4nc(C(F)(F)F)n(C)c(=O)c4n3)CC3(CC3)O2)cn1 (single isomer, unassigned) [Example 165B] | 75 to 110 | 0.01 to 0.1
15 | Cc1nc2c(-c3ccc(F)cc3F)nc(N3C[C@@H](c4cnn(C)c4)OC(F)(F)C3)cc2c(=O)n1C (single isomer, unassigned) [Example 166A] | 75 to 110 | 0.001 to 0.01
16 | Cc1nc2c(-c3ccc(F)cc3F)nc(N3C[C@H](c4cnn(C)c4)OC(F)(F)C3)cc2c(=O)n1C (single isomer, unassigned) [Example 166B] | < 75 | 0.01 to 0.1
17 | Cc1cc([C@@H]2C[C@H](c3cc4c(=O)n(C)c(C)nc4c(-c4ccc(C(F)(F)F)cc4F)n3)CCO2)ccn1 (single isomer, unassigned) [Example 168A] | < 75 | 0.1 to 1

Row | SMILES | Emax [%] | EC50 [µM]
18 | Cc1cc([C@H]2C[C@@H](c3cc4c(=O)n(C)c(C)nc4c(-c4ccc(C(F)(F)F)cc4F)n3)CCO2)ccn1 (single isomer, unassigned) [Example 168B] | 75 to 110 | 0.001 to 0.01
19 | Cc1cc([C@@H]2CN(c3nc(-c4ccc(F)cc4F)c4nc(C)n(C)c(=O)c4n3)CC(F)(F)O2)ccn1 (single isomer, unassigned) [Example 169A] | 75 to 110 | < 0.001
20 | Cc1cc([C@H]2CN(c3nc(-c4ccc(F)cc4F)c4nc(C)n(C)c(=O)c4n3)CC(F)(F)O2)ccn1 (single isomer, unassigned) [Example 169B] | 75 to 110 | 0.01 to 0.1
21 | Cc1cc([C@@H]2CN(c3nc(-c4ccc(F)cc4F)c4nc(C)n(C)c(=O)c4n3)CC(C)(C)O2)ccn1 (single isomer, unassigned) [Example 170A] | < 75 | 0.1 to 1
22 | Cc1cc([C@H]2CN(c3nc(-c4ccc(F)cc4F)c4nc(C)n(C)c(=O)c4n3)CC(C)(C)O2)ccn1 (single isomer, unassigned) [Example 170B] | 75 to 110 | 0.001 to 0.01
23 | Cc1cc([C@@H]2CN(c3cc4c(=O)n(C)c(C)nc4c(-c4ccc(F)cc4F)n3)CC(F)(F)O2)ccn1 (single isomer, unassigned) [Example 171A] | > 110 | 0.001 to 0.01
24 | Cc1cc([C@H]2CN(c3cc4c(=O)n(C)c(C)nc4c(-c4ccc(F)cc4F)n3)CC(F)(F)O2)ccn1 (single isomer, unassigned) [Example 171B] | < 75 | 0.1 to 1
25 | Cc1cc([C@@H]2CN(c3cc4c(=O)n(C)c(C)nc4c(-c4ccc(Cl)cc4F)n3)CC(C)(C)O2)ccn1 (single isomer, unassigned) [Example 172A] | < 75 | 0.1 to 1
26 | Cc1cc([C@H]2CN(c3cc4c(=O)n(C)c(C)nc4c(-c4ccc(Cl)cc4F)n3)CC(C)(C)O2)ccn1 (single isomer, unassigned) [Example 172B] | 75 to 110 | 0.001 to 0.01
27 | Cc1nc2c(-c3ccc(Cl)cc3F)nc(N3C[C@@H](c4cnn(C)c4)OC4(CC4)C3)c(F)c2c(=O)n1C (single isomer, unassigned) [Example 173A] | < 75 | 0.01 to 0.1
28 | Cc1nc2c(-c3ccc(Cl)cc3F)nc(N3C[C@H](c4cnn(C)c4)OC4(CC4)C3)c(F)c2c(=O)n1C (single isomer, unassigned) [Example 173B] | < 75 | 0.01 to 0.1
29 | Cc1cc([C@@H]2CN(c3nc(-c4ccc(F)cc4F)c4nc(C(F)(F)F)n(C)c(=O)c4c3F)CCO2)ccn1 (single isomer, unassigned) [Example 174A] | < 75 | 0.01 to 0.1
30 | Cc1cc([C@H]2CN(c3nc(-c4ccc(F)cc4F)c4nc(C(F)(F)F)n(C)c(=O)c4c3F)CCO2)ccn1 (single isomer, unassigned) [Example 174B] | < 75 | 0.1 to 1
31 | Cc1cc([C@@H]2CN(c3nc(-c4ccc(F)cc4F)c4nc(C)n(C)c(=O)c4n3)C[C@H](C)O2)ccn1 (single isomer, unassigned) [Example 175A] | 75 to 110 | 0.001 to 0.01
32 | Cc1cc([C@H]2CN(c3nc(-c4ccc(F)cc4F)c4nc(C)n(C)c(=O)c4n3)C[C@@H](C)O2)ccn1 (single isomer, unassigned) [Example 175B] | 75 to 110 | 0.01 to 0.1
33 | Cc1cc([C@@H]2CN(c3nc(-c4ccc(Cl)cc4F)c4nc(C)n(C)c(=O)c4n3)C[C@H](C)O2)ccn1 (single isomer, unassigned) [Example 176A] | 75 to 110 | < 0.001
